For one experiment, the system named is MDCK cell line. Kind of experiment: In vitro cytotoxicity, WST-1. The class given is cell-based, canine. The following applies: Canis lupus familiaris, 10% FBS, read-out: IC50, single agent. Here is the method: (§1) Cells were maintained in Dulbecco’s modified Eagle’s medium (DMEM) with 10% fetal bovine serum (FBS) and 1% PenStrep (100 U/mL Penicillin and 100 μg/mL Streptomycin) at 37°C with 5% CO2. Cells were serially passaged at ∼80% confluence ∼ every 4 days. Assays were performed in duplicate in 96 well plates seeded with ∼25,000 cells per well. […] Briefly, the antimicrobials were prepared by performing a twofold serial dilution at 100× of tested concentration in DMSO. Subsequently, a 1 μl aliquot of each concentration was transferred to a sterile 96-well plate containing fresh DMEM with either 10% FBS. After mixing four times, the media aliquots with different concentrations of antimicrobial were transferred to each well of the 96-well plate seeded with cells, using wells containing 1–2% DMSO only as control. To determine the effect of FBS on the cytotoxicity of each compound, DMEM with 40% FBS containing different concentrations of antimicrobial was prepared as described above. After 24 h of exposure, WST-1 reagent (Cell Proliferation Assay reagent, Roche) at a concentration of 10% was added to each well. Absorbance at A450 nm on a Multiskan Ascent 354 Spectrophotometer (Labsystems) was measured after 1 h of incubation. The IC50 value was determined for each compound against each cell line via non-linear regression (three parameters) using GraphPad Prism v6 software.
Background: Tetrazolium assays rely on reduction of a dye to a coloured formazan, in cell work by metabolically active cells.

Experiment [1] relates to all the cell lines tested (HaCaT, HEK 293, MDCK). Put plainly: cells. The method, then: as §1
Another experiment has as its system S. aureus ATCC 29213. Put plainly: MIC broth microdilution, quality control strain. The settings on record: Staphylococcus aureus, ATCC29213; S. aureus ATCC 29213, quality control strain. The class given is cell-based. The method, then: Luria Bertani (LB) broth (Oxoid, Australia) was applied for MIC testing in lieu of cation-adjusted Mueller–Hinton broth as robenidine has been previously shown to chelate calcium ions. Furthermore, a twofold serial dilution of robenidine was performed in 100% DMSO, with 1 μl dispensed to each well due to the hydrophobicity of the compound ([Abraham et al., 2016]). The MIC for ampicillin or gentamicin against each isolate was determined for each test to serve as an internal quality control. The MICs of isolates were determined by visual reading and using an EnSpire Multimode Plate Reader 2300 atA600nm.
Background: Broth dilution looks for growth in wells or tubes with falling amounts of substance.

The test system of experiment [2] is Gram-negative control strains. Put plainly: Checkerboard, summary over Gram-negative strains. It is filed as cell-based. The method, then:
(§2) Briefly, antimicrobial stock solutions for robenidine and PMBN were prepared at a concentration of 12.8 mg/ml in DMSO. […] A 1 μl aliquot of the first compound from each combination was dispensed along the abscissa (from row A to G) of the 96-well microplate, while the second compound was dispensed along the ordinate (from column 12 to column 3) using an electronic multichannel pipette followed by 89 μl of LB broth. Each well of the plate was inoculated with an aliquot of 10 μl bacterial suspension at a concentration of 1-5 × 10^6 colony forming units (CFU) per ml. Subsequently, the plate was incubated at 37°C for 24 h. The fractional inhibitory concentration index (FICI) described the results of the combinations, and was calculated utilizing the following formula:
(§3) DRI = MIC of drug alone/MIC of drug in combination

In experiment [3] the test system is 18 A. baumannii isolated from human clinical cases. Kind of experiment: MIC/MBC, human clinical Acinetobacter isolates. The class given is cell-based. The following applies: 18 A. baumannii human clinical isolates. From the text: (§4) Escherichia coli ATCC 25922, E. coli ATCC 11229, P. aeruginosa ATCC 27853, P. aeruginosa PA01, Pseudomonas putida ATCC 17428, P. mirabilis ATCC 43071, K. pneumoniae ATCC 13883, A. baumannii ATCC 19606, and A. baumannii ATCC 12457 were used for preliminary susceptibility testing and combination experiments. S. aureus ATCC 29213 and S. pneumoniae ATCC 49619 were used as internal quality controls. A variety of bacterial organisms from both human and canine infections were investigated in this study (n = 119 isolates in total). Twenty-eight clinical Acinetobacter spp. isolates were obtained from cases of human skin and soft tissue infections, including 18 Acinetobacter baumannii and 10 A. calcoaceticus, kindly provided by a person (Institute of Medical and Veterinary Science, South Australia). […] Ninety-one clinical isolates were obtained from cases of canine otitis externa, including seven methicillin-susceptible S. pseudintermedius (MSSP), 13 multidrug- and methicillin-resistant S. pseudintermedius (MRSP) ([Saputra et al., 2017]), 20 beta-haemolytic Streptococcus spp., 30 P. aeruginosa (10 of them resistant to gentamicin and 21 P. mirabilis isolates). These isolates were obtained from the bacterial collection of the national survey of antimicrobial resistance in animals conducted in Australia. Swab samples from dogs with signs of otitis externa were collected by veterinarians and submitted to government, private or university diagnostic laboratories throughout Australia. After routine bacterial identification and the removal of confidential information, the participating veterinary diagnostic laboratories submitted the bacteria and their clinical information to PC2 Laboratories, Australian Centre for Antimicrobial Resistance Ecology, School of Animal and Veterinary Sciences, University of Adelaide, Roseworthy Campus, Roseworthy, SA, Australia, for further study. Thus, animal ethics approval was not required in this study. These organisms were identified to species level using biochemical testing and MALDI-TOF mass spectrometry (Bruker, Preston, VIC, Australia).
(§5) The MIC for ampicillin or gentamicin against each isolate was determined for each test to serve as an internal quality control. The MICs of isolates were determined by visual reading and using an EnSpire Multimode Plate Reader 2300 atA600nm.
(§6) Briefly, 10 μl aliquots from each duplicate well from the MIC assays (starting from the MIC for each compound) were inoculated onto a sheep blood agar (SBA) plate and incubated at 37°C.

The test system of experiment [4] is 10 A. calcoaceticus isolated from human clinical cases. Kind of experiment: MIC/MBC, human clinical Acinetobacter isolates. It is filed as cell-based. The settings on record: 10 A. calcoaceticus human clinical isolates.
From the text: as §4, §5, §6

On the set-up of experiment [5]: method as in Abraham et al., 2016. The following applies: ref Abraham et al., 2016, cited from earlier work.
The next experiment has as its system Acinetobacter spp. Kind of experiment: Checkerboard, summary for Acinetobacter spp. It is filed as cell-based. The settings on record: in the presence of EDTA and PMBN. Here is the method:
as §2, §3

Converted amounts (≈) assume the structure as drawn. Where two headings read alike, the source gives them in different places. Some results are limits rather than exact numbers.

In the case of `O=C(O)CN(CCN(CC(=O)O)CC(=O)O)CC(=O)O` [EDTA, ethylenediaminetetraacetic acid], the IC50 (with MDCK cell line; in experiment [1]) was 3.4 mM in each case.
Consider `N=C(N/N=C/c1ccc(Cl)cc1)N/N=C/c1ccc(Cl)cc1` [ROB, robenidine], for which the minimum inhibitory concentration (MIC) (usually the lowest concentration found to suppress growth) is 2 µg/mL (≈ 5.98 µM) in the experiment on S. aureus ATCC 29213; 0.5 to 8 µg/mL in experiment [2] (in the presence of PMBN, Gram-negative pathogens, read-out: MIC of robenidine); 8 µg/mL in experiment [3] (Acinetobacter baumannii); 2 µg/mL in experiment [4] (Acinetobacter calcoaceticus). Also, in experiment [2] (in combination with PMBN, Gram-negative ATCC strains of ESKAPE pathogens), the “lowest robenidine concentration inhibiting growth” value was not below 0.125 µg/mL. The DRIs of robenidine was 2- to 256 fold in experiment [2] (in the presence of EDTA, Gram-negative control strains (Table 1)); 8- to 256 fold in experiment [2] (in the presence of PMBN, Gram-negative control strains (Table 2)); 2- to 2048 fold in experiment [2] (in the presence of both EDTA and PMBN, all tested isolates (abstract)). The “fold increase in susceptibility” value in experiment [2] (robenidine in combination with PMBN, Gram-negative ATCC strains of ESKAPE pathogens) was 4- to 256 fold. Further, the MIC range in experiment [3] is 8 to 64 µg/mL; in experiment [4] it was 1 to 8 µg/mL. For the same compound, the “serum impact on MIC values” in experiment [5] (10% serum) is “fourfold increase”; in experiment [5] (50% serum), “no antimicrobial activity”. Further, the “fold reduction of robenidine MICs” value in the experiment with Acinetobacter spp. is given as 8- to 32 fold.

The values are drawn from PMC6494957 (Frontiers in Microbiology, 2019).
